The values that follow are results of earlier work, collected in patent US8415392B2, “Combined use of L-carnitine, acetyle L-carnitine and propionyl L-carnitine for the treatment of oligoasthenoteratospermia” (Sigma-Tau Industrie Farmaceutiche Riunite, S.p.A., priority 2002, dated 2013).

Structures are written as SMILES.

The subject of data set [1] is patients with idiopathic asthenospermia. To be noted: L-carnitine administration.
The test system of data set [2] is patients with idiopathic oligoastheno-spermia. To be noted: acetyl L-carnitine.
The mark [3] stands for this setting: Fertilität 4.1-4, 1988, L-carnitine therapy.

Consider `C[N+](C)(C)C[C@H](O)CC(=O)[O-]` [L-carnitine], for which, in data set [1], the “patients in whom sperm motility improved and sperm count increased” value was 37 out of 47. For the same compound, in the data set on infertile patients (Andrologia 26:155-159, 1994, quantitative and qualitative), the sperm motility entry is recorded as “significant improvement”. Moreover, in the data set with infertile patients (setting [3]), the “carnitine levels in the spermatozoa” value was “increase”; the “sperm motility and sperm count” value is given as “increase”. The sperm quality entry in the data set with infertile patients (Loumbakis et al. 1996, preliminary data) was “may have a positive effect”.
On to `CC(=O)O[C@H](CC(=O)[O-])C[N+](C)(C)C` [acetyl L-carnitine], for which, in data set [2], the sperm density entry is on record as “no effect” and the sperm motility entry is given as “progressive increase”.
